For series [1] the following is noted: nonlactating pregnant beef cows; 60 mg Iodine/day for 10 days.
The conditions of series [2]: nonlactating pregnant beef cows, bolus.

Like-named read-outs stand apart in the source and are kept apart here.

On to “Zinc Hydroxy-Methylthio-Butyric Acid Iodide [Example III]”, for which, in series [1], the “Average Serum iodine level (day 2-day 14)” value amounted to 386 and the “Serum iodine Day 10 (last treatment day)” value stood at 630.
Consider Zinc Lysine Diiodide [Structure I], for which, in series [2] (60 mg Iodine/day for 10 days (day 0-day 10), average of day 2-14), the “Average Serum iodine level (day 2-day 14)” value worked out at 184. Moreover, the “Serum iodine Day 10 (last treatment day)” value in series [2] (60 mg Iodine/day for 10 days, peak value at day 10) is on record as 380. Moreover, the “Blood levels of iodine compared with CaIO3 or EDDI” value in series [2] (60 mg iodine day 0-day 10) is “higher blood levels of iodine than CaIO3 or EDDI”.
